Results taken from US9593127B2, “Heterocyclylalkyne derivatives and their use as modulators of mGluR5 receptors” (RECORDATI IRELAND LTD., priority 2014, dated 2017).

What was measured:
[1] = biological target: T1, human mGlu5 receptor (CHO T-REx h-mGluR5 cells) (Homo sapiens (Human), UniProt P41594); experiment: Calcium fluorescence measurement, potentiation of mGlu5 activation at EC20 of quisqualate; type: cell-based; details: for Fold Shift 1 microM Quisq. / Fold Inc. Quisq.: agonist quisqualate; for EC50: potentiation, agonist quisqualate at EC20, read-out: EC50 nM Quisq.
Description: (§1) Cell lines stably transfected were generated using inducible expression vectors encoding human mGlu5 receptor using the Tetracycline-Regulated Expression system (T-REx™ system, Invitrogen, Life Technologies). Human mGluR5 open reading frame (ORF), comprehensive of the stop codon, were cloned into the pcDNA4/TO/myc-His™ A vector, carrying the TetO2 sequences. The insertion site was HindIII-PstI for mGluR5 receptors. The obtained constructs were then transfected into the T-REx CHO™ cell line using the FuGENE protocol (Roche); the CHO T-REx™ cell line stably expresses the Tet repressor (from the pcDNA6/TR plasmid) under the selection of blasticidin, 10 μg/ml. Stable clones were obtained selecting with zeocine 1 mg/ml and maintaining in ULTRA CHO medium (LONZA) supplemented with dialyzed FBS, zeocin, blasticidine, at 37° C., in an atmosphere of 5% CO2. The expression of h-mGluR5 receptors was de-repressed with 1 μg/ml tetracycline for 18 h before binding experimentation, while the expression of h-mGluR5 receptors was de-repressed respectively with 3 ng/ml and 10 ng/ml tetracycline for 18 h before calcium fluorescence experimentation.
(§2) Cells were seeded into black-walled, clear-bottom, 96-well plates at a density of 80000 cell/well, in RPMI (without Phenol Red, without L-glutamine; Gibco LifeTechnologies, CA) supplemented with 10% dialyzed FBS. Following 18-h incubation with tetracycline, the cells were loaded with […] Ca^2+—sensitive fluorescent dye Fluo-4/AM (Molecular Probes) in Hanks' balanced saline solution (HBSS, Gibco LifeTechnologies, CA) with 20 mM Hepes (Sigma) and 2.5 mM probenecid (Sigma), for 1 h at 37° C. The cells were washed three times with HBSS to remove extracellular dye. Fluorescence signals were measured by using the fluorescence microplate reader Flexstation III (Molecular Devices) at sampling intervals of 1.5 s for 60 s.
(§3) The antagonist potency was determined using the EC80 of the quisqualate used as agonist and the potentiation of mGlu5 activation was determined using the EC20 of the agonist (quisqualate or glutamate). The compounds were applied 10 minutes before the application of the agonist. For binding and calcium assay studies, the compounds were dissolved in DMSO or demineralized water according to their solubility. All the reported doses were those of the corresponding salts or bases.

[2] = biological target: T1, human mGlu5 receptor (CHO T-REx h-mGluR5 cells); experiment: Calcium fluorescence measurement, antagonist potency against EC80 of quisqualate; type: cell-based; details: agonist quisqualate at EC80; read-out: h.c. mgluR5 Calcium IC50
Description: as §1, §2, §3

[3] = biological target: T1, human mGlu5 receptor (CHO T-REx h-mGluR5 cells); experiment: Radioligand binding assay at cloned mGluR5 ([3H]MPEP displacement); details: 4 nM [3H]MPEP, read-out: h.c. mglu R5 IC50
Description: as §1
Affinity at transmembrane glutamate metabotropic mGluR5 receptor subtypes was evaluated according to the methods of Anderson (Anderson et al., J Pharmacol. Exp. Ther., (2002), Vol. 303(3), pp. 1044-51), with some modifications. Cloned mGluR5 was obtained by re-suspending CHO T-REx h-mGluR5 cells (50 μg/well) in 20 mM HEPES, 2 mM MgCl2, 2 mM CaCl2, pH 7.4, that then were incubated in a final volume of 1 ml for 60 min at 25° C. with 4 nM [^3H]MPEP in the absence or presence of competing drugs. Non-specific binding was determined in the presence of […] MPEP. The incubation was stopped by addition of cold Tris buffer pH 7.4 and rapid filtration through 0.2% polyethyleneimine pretreated Filtermat 1204-401 (Perkin Elmer) filters. The filters were then washed with cold buffer and the radioactivity retained on the filters was counted by liquid scintillation spectrometry (Betaplate 1204 BS-Wallac).
as §3
The inhibition curves of the tested compounds at native and cloned mGluR1 and mGluR5 subtypes were determined by nonlinear regression analysis using software Prism 4.0 (Graphpad, San Diego, Calif.). The IC50 values and pseudo-Hill slope coefficients were estimated by the program. The values for the inhibition constant, Ki, were calculated according to the equation Ki=IC50/(1+[L]/Kd), where [L] is the concentration of radioligand and Kd is the equilibrium dissociation constant of the radioligand-receptor complex (Cheng et al., Biochem. Pharmacol. (1973), Vol. 22, pp. 3099-3108).

T1 sequence (P41594 21-1212): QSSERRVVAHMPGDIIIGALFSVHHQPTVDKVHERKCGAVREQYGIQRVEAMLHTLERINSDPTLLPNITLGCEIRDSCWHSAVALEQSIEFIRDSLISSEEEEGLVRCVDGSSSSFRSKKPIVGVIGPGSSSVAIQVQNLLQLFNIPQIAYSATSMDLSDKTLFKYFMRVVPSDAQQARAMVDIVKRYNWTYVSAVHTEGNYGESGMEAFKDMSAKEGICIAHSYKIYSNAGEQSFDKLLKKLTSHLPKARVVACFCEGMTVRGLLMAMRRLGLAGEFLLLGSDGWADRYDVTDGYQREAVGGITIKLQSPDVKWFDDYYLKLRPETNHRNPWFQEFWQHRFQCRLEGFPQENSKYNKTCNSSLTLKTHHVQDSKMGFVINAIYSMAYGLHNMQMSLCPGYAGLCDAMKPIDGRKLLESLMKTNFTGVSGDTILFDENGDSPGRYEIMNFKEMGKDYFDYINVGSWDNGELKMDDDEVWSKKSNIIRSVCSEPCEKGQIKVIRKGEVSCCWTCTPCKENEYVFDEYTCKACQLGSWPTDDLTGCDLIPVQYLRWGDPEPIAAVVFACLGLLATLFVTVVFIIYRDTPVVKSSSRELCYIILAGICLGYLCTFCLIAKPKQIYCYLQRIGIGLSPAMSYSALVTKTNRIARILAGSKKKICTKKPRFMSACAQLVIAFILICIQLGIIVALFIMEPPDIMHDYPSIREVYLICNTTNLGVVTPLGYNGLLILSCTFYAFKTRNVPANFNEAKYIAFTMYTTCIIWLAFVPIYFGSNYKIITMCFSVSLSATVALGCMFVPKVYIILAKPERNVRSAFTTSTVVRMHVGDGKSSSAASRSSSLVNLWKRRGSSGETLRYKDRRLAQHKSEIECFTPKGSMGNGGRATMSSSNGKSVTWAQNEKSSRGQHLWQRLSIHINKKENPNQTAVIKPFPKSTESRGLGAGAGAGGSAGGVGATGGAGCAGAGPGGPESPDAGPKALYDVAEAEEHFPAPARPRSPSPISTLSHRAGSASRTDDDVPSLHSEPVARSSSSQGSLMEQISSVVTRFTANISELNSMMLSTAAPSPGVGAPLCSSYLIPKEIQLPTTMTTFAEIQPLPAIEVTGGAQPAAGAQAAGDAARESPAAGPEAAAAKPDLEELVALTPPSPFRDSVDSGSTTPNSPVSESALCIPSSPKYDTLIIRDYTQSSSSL

Structure (SMILES)	Fold Shift 1 microM Quisq. [1] [fold]	Fold Inc. Quisq. [1] [fold]	EC50 [1] [nM]	IC50 [2] [nM]	IC50 [3] [nM]
CC(C)(C)OC(=O)N1CCC2C(C#Cc3cccc(Cl)c3)=NOC21 (centres unmarked) [Example 1, tert-butyl 3-[2-(3-chlorophenyl)ethynyl]-3a,4,5,6a-tetrahydropyrrolo[3,2-d]isoxazole-6-carboxylate]	1.8	1.96	37.1	> 1000	3.87
O=C(c1ccco1)N1CCC2C(C#Cc3cccc(Cl)c3)=NOC21 (centres unmarked) [Example 2, [3-[2-(3-chlorophenyl)ethynyl]-3a,4,5,6a-tetrahydropyrrolo[3,2-d]isoxazol-6-yl]-(2-furyl)methanone]		0		> 1000	29.6
CCOC(=O)N1CCC2C(C#Cc3cccc(Cl)c3)=NOC21 (centres unmarked) [Example 3, ethyl 3-[2-(3-chlorophenyl)ethynyl]-3a,4,5,6a-tetrahydropyrrolo[3,2-d]isoxazole-6-carboxylate]				54.8	81.5
CN(C)C(=O)N1CCC2C(C#Cc3cccc(Cl)c3)=NOC21 (centres unmarked) [Example 7, 3-[2-(3-chlorophenyl)ethynyl]-N,N-dimethyl-3a,4,5,6a-tetrahydropyrrolo[3,2-d]isoxazole-6-carboxamide]				212	59.2
O=C(N1CCCCC1)N1CCC2C(C#Cc3cccc(Cl)c3)=NOC21 (centres unmarked) [Example 8, [3-[2-(3-chlorophenyl)ethynyl]-3a,4,5,6a-tetrahydropyrrolo[3,2-d]isoxazol-6-yl]-(1-piperidyl)methanone]				> 1000	12.5
O=C(N1CCCC1)N1CCC2C(C#Cc3cccc(Cl)c3)=NOC21 (centres unmarked) [Example 9, [3-[2-(3-chlorophenyl)ethynyl]-3a,4,5,6a-tetrahydropyrrolo[3,2-d]isoxazol-6-yl]-pyrrolidin-1-yl-methanone]				> 1000	15
Cc1cccc(C#CC2=NOC3C2CCN3C(=O)OC(C)(C)C)c1 (centres unmarked) [Example 10, tert-butyl 3-[2-(m-tolyl)ethynyl]-3a,4,5,6a-tetrahydropyrrolo[3,2-d]isoxazole-6-carboxylate]	2.2	3.5	141	> 1000	3.65
Cc1cccc(C#CC2=NOC3C2CCN3C(=O)N2CCCC2)c1 (centres unmarked) [Example 11, [3-[2-(m-tolyl)ethynyl]-3a,4,5,6a-tetrahydropyrrolo[3,2-d]isoxazol-6-yl]-pyrrolidin-1-yl-methanone]				> 1000	17
Cc1cccc(C#CC2=NOC3C2CCN3C(=O)N2CCOCC2)c1 (centres unmarked) [Example 13, morpholino-[3-[2-(m-tolyl)ethynyl]-3a,4,5,6a-tetrahydropyrrolo[3,2-d]isoxazol-6-yl]methanone]	3.2	2.06	131	> 1000	50
CCN(CC)C(=O)N1CCC2C(C#Cc3cccc(C)c3)=NOC21 (centres unmarked) [Example 14, N,N-diethyl-3-[2-(m-tolyl)ethynyl]-3a,4,5,6a-tetrahydropyrrolo[3,2-d]isoxazole-6-carboxamide]				> 1000	14.8
CON(C)C(=O)N1CCC2C(C#Cc3cccc(C)c3)=NOC21 (centres unmarked) [Example 15, N-methoxy-N-methyl-3-[2-(m-tolyl)ethynyl]-3a,4,5,6a-tetrahydropyrrolo[3,2-d]isoxazole-6-carboxamide]				21.1	22
